Values of other authors, collected in patent US7585520B2, “Compositions containing both sedative and non-sedative antihistamines and sleep aids” (Collegium Pharmaceutical, Inc., priority 2001, dated 2009).

conditions: drug or active metabolite

Row | Elimination half-life | SMILES
1 | 20 to 30 h | COc1ccc(CCN2CCC(Nc3nc4ccccc4n3Cc3ccc(F)cc3)CC2)cc1 [Astemizole]
2 | 13 to 16 h | CC(C)(C)c1ccc(C(=O)CCCN2CCC(OC(c3ccccc3)c3ccccc3)CC2)cc1 [Ebastine]
3 | 8 to 13 h | CN(c1nccc(=O)[nH]1)C1CCN(c2nc3ccccc3n2Cc2ccc(F)cc2)CC1 [Mizolazine]

Row | SMILES | Elimination half-life
4 | Clc1ccc2c(c1)CCc1cccnc1C2=C1CCNCC1 [Descarboethoxyloratidine] | 17.3 to 24 h
5 | Oc1ccc(CCN2CCC(Nc3nc4ccccc4n3Cc3ccc(F)cc3)CC2)cc1 [Desmethylastemizole] | 290 h
